# Measured values: patent US20200078404A1, “COMBINATION OF A CELL THERAPY AND AN IMMUNOMODULATORY COMPOUND” (Juno Therapeutics, Inc., priority 2017, published 2020)
# Test system: OPM2-ffluc tumor
# Experiment: OPM-2 human multiple myeloma orthotopic xenograft mouse model, Study 1
# Assay type: in vivo
# Description: Mice (NOD.Cg-Prkdc^scidIL-2rg^tm1Wjl/SzJ mice (NSG; Jackson Labs)) were injected intravenously (i.v.) with 2×10^6 OPM2 (multiple myeloma) cells transfected with firefly luciferase (OPM2-ffluc). Tumor engraftment was allowed to occur for 13 days prior to staging (14 days before CAR-T cell administration) and verified using bioluminescence imaging.
# Table E1 summarizes the dosing regimens.
# Tumor burden in animals among the various groups was monitored by bioluminescence imaging up to day 39 post-CAR+ T cell dosing. For bioluminescence imaging, mice received intraperitoneal (i.p.) injections of luciferin substrate (CaliperLife Sciences, Hopkinton, Mass.) resuspended in PBS (15 μg/g body weight). The total flux (photon/s) was determined at each time point.
# Table E2 lists median survival (ms) (as assessed at day 56 post-CAR+ T cell administration) and number of mice in group surviving until day 56-post-CAR+ T cell administration, for each animal group assessed in this study.
smiles,measurement,setting,value
"Nc1cccc2c1CN(C1CCC(=O)NC1=O)C2=O (stereo not shown) [lenalidomide, 3-(4-amino-1-oxo-1,3-dihydro-2H-isoindol-2-yl)piperidine-2,6-dione]",survival effects,"added to anti-BCMA CAR+ T cells, high and low doses, day −1 or delayed dosing",improved survival effects
same,# animals surviving day 56 post-CART,"lenalidomide 10 mg/kg i.p. daily from day −1 (A) or day 14 (B), cell dose hi 1.00E+06, low 5.00E+05",0/8
same,Median Survival (assessed at day 6),"lenalidomide 10 mg/kg i.p. daily from day −1 (A) or day 14 (B), cell dose hi 1.00E+06, low 5.00E+05, listed as lenalidomide (A)",28
same,Median Survival (assessed at day 6),"lenalidomide 10 mg/kg i.p. daily from day −1 (A) or day 14 (B), cell dose hi 1.00E+06, low 5.00E+05, listed as lenalidomide (B)",25
same,tumor growth or tumor burden,lenalidomide alone,not observed to reduce tumor growth or tumor burden
same,tumor growth and tumor burden,"lenalidomide from day 14 added to CAR-T cells, both doses",trend towards slower tumor growth and reduced tumor burden
same,tumor growth and tumor burden (bioluminescence),"lenalidomide from day −1 added to CAR+ T cells, both doses",slower tumor growth and reduced tumor burden
